pEC50: −log10 of the molar value.
Tests used:
Type in all cases: cell-based
NCI-H2052 = assay: Mesothelioma cell line proliferation assay (ATPlite), NCI-H2052; details: Homo sapiens, NCI-H2052, 144 h, NCI-H2052 cells, 6 days, ATPlite cell viability
Experimental: (§1) Mesothelioma cell lines, NCI-H226 and NCI-H2052 (all sourced from the ATCC cell culture collection) are plated in 96-well plates (Corning® 96 Well White Polystyrene Microplate clear flat bottom, white polystyrene (TC-Treated)), at 1500 cells/well in full medium (RPMI 1640 ATCC modification with L-glutamine, HEPES, Phenol Red, Sodium Pyruvate, High glucose, Low sodium bicarbonate and 10% fetal bovine serum). Cells are incubated overnight at 37° C. in an incubator with 5% CO2. Then compounds, dissolved in DMSO, are added in dose-response. Cells are incubated with compound dilutions for another 6 days at 37° C. in an incubator with 5% CO2. Cell viability is quantitated using the ATPlite kit (Perkin-Elmer) and the luminescence is read-out using an Envision instrument (Perkin-Elmer). The amount of relative light units produced using the ATPlite kit is used to calculated percent of inhibition.
(§2) The activities of example compounds tested are depicted in the table below. The activity ranges A, B and C refer to EC50 values in the mesothelioma cell line proliferation assay as described as follows: “A”: EC50<1 μM; “B”: 1 μM s EC50≤10 μM and “C”: EC50>10 μM. NT: not tested.

NCI-H226 = assay: Mesothelioma cell line proliferation assay (ATPlite), NCI-H226; details: Homo sapiens, 144 h; NCI-H226 cells, 6 days, ATPlite cell viability
Experimental: as §1, §2

[1] = system: YAP/TAZ-TEAD transcription; assay: Reporter gene assay for measuring the inhibition of YAP/TAZ-TEAD transcription (TEAD-responsive element luciferase reporter in Hek293T cells); details: Homo sapiens, HEK-293T, 24 hours incubation
Method in brief: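 Percent inhibition, scaled between vehicle (0%) and a positive control inhibitor (100%), came from SteadyLite luciferase signal after 24 h compound exposure at 37 °C/5% CO2. Cells: Hek293T transiently carrying a TEAD-responsive luciferase reporter; EC50 derived.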

Row | pEC50 (NCI-H2052) | pEC50 (NCI-H226) | pEC50 [1] | SMILES
1 | 5.00 to 6.00 | > 6.00 | > 6.00 | C=CC(=O)NCc1ccc(-c2ccc(F)cc2)cc1-c1cn(C(F)F)nn1 [compound 185, N-((3-(1-(difluoromethyl)-1H-1,2,3-triazol-4-yl)-4′-fluoro-[1,1′-biphenyl]-4-yl)methyl)acrylamide]
2 | 5.00 to 6.00 | > 6.00 | > 6.00 | C=CC(=O)NCc1ccc(-c2ccc(F)cc2)cc1-c1cnn(C)n1 [compound 187, N-((4′-fluoro-3-(2-methyl-2H-1,2,3-triazol-4-yl)-[1,1′-biphenyl]-4-yl)methyl)acrylamide]
3 | > 6.00 | > 6.00 | > 6.00 | C=CC(=O)NCc1ccc(-c2ccc(F)cc2)cc1-c1nnn(C)n1 [compound 188, N-((4′-fluoro-3-(2-methyl-2H-tetrazol-5-yl)-[1,1′-biphenyl]-4-yl)methyl)acrylamide]
4 | 5.00 to 6.00 | > 6.00 | > 6.00 | C=CC(=O)NCc1ccc(-c2ccc(F)cc2)cc1-c1nnn(C(F)F)n1 [compound 190, N-((3-(2-(difluoromethyl)-2H-tetrazol-5-yl)-4′-fluoro-[1,1′-biphenyl]-4-yl)methyl)acrylamide]
5 | > 6.00 | > 6.00 | > 6.00 | C=CC(=O)NCc1ncc(-c2ccc(F)cc2)cc1-c1ccn(C2CC2)n1 [compound 202, N-((3-(1-cyclopropyl-1H-pyrazol-3-yl)-5-(4-fluorophenyl)pyridin-2-yl)methyl)acrylamide]
6 | > 6.00 | > 6.00 | > 6.00 | C=CC(=O)NCc1cnc(-c2ccc(F)cc2)cc1-c1ccn(C)n1 [compound 205, N-((6-(4-fluorophenyl)-4-(1-methyl-1H-pyrazol-3-yl)pyridin-3-yl)methyl)acrylamide]
7 | > 6.00 | > 6.00 | > 6.00 | C=CC(=O)NCc1cnc(-c2ccc(F)cc2)cc1-c1ccn(C2CC2)n1 [compound 206, N-((4-(1-cyclopropyl-1H-pyrazol-3-yl)-6-(4-fluorophenyl)pyridin-3-yl)methyl)acrylamide]

Second part, the compound before the results:

Row | SMILES | pEC50 (NCI-H2052) | pEC50 (NCI-H226) | pEC50 [1]
8 | C=CC(=O)NCc1ccc(-c2ccc(F)cc2)nc1-c1ccn(C)n1 [compound 193, N-((6-(4-fluorophenyl)-2-(1-methyl-1H-pyrazol-3-yl)pyridin-3-yl)methyl)acrylamide] | > 6.00 | > 6.00 | > 6.00
9 | C=CC(=O)NCc1ccc(-c2ccccc2)nc1-c1ccn(C)n1 [compound 194, N-((2-(1-methyl-1H-pyrazol-3-yl)-6-phenylpyridin-3-yl)methyl)acrylamide] | > 6.00 | > 6.00 | > 6.00
10 | C=CC(=O)NCc1ccc(-c2ccc(F)cc2)nc1-c1ccn(C(F)F)n1 [compound 198, N-((2-(1-(difluoromethyl)-1H-pyrazol-3-yl)-6-(4-fluorophenyl)pyridin-3-yl)methyl)acrylamide] | > 6.00 | > 6.00 | > 6.00
11 | C=CC(=O)NCc1ncc(-c2ccc(F)cc2)cc1-c1ccn(C)n1 [compound 201, N-((5-(4-fluorophenyl)-3-(1-methyl-1H-pyrazol-3-yl)pyridin-2-yl)methyl)acrylamide] | > 6.00 | > 6.00 | > 6.00
12 | C=CC(=O)NCc1ncc(-c2ccc(F)cc2)cc1-c1ccn(C(F)F)n1 [compound 203, N-((3-(1-(difluoromethyl)-1H-pyrazol-3-yl)-5-(4-fluorophenyl)pyridin-2-yl)methyl)acrylamide] | > 6.00 | > 6.00 | > 6.00
13 | C=CC(=O)NCc1cnc(-c2ccc(F)cc2)cc1-c1ccn(C(F)F)n1 [compound 207, N-((4-(1-(difluoromethyl)-1H-pyrazol-3-yl)-6-(4-fluorophenyl)pyridin-3-yl)methyl)acrylamide] | > 6.00 | > 6.00 | > 6.00
